# Like-named read-outs stand apart in the source and are kept apart here.
# Assay: 14-day oral gavage toxicokinetic study in rats
# Type: in vivo
# Conditions: female, rat, plasma, po; for concentration at 1 h / concentration at 2 h / concentration at 4 h / concentration at 8 h / concentration at 12 h / concentration at 24 h / concentration at 0.5 h / concentration at […]: rats; for concentration at […]: Day 14, […]; for half-life: read-out: t½ (converted)
# Procedure: Plasma was obtained from blood samples collected from rats in a composite sampling scheme, with 3 samples collected per sex, per dose, at each target collection time, as illustrated in Table 21 to Table 25. Samples were collected from the vehicle control group on Day 1 and Day 14 at 3 hour after administration. […] Blood samples were collected in tubes containing K3EDTA as an anticoagulant and placed on ice until processed to plasma via centrifugation. Samples were stored frozen at −80° C. until shipment to the bioanalytical laboratory for analysis.
# The following parameters were determined:
# Cmax: Maximum observed plasma concentration (ng/mL).
# A value of 0 ng/mL was assigned to all values below the lower limit of quantitation (BLQ, <10.0 ng/mL).
# AUC(0-inf): Area under the plasma concentration vs. time curve extrapolated from 0 to infinity (ng*h/mL), calculated as AUC(0-t)+AUC(t-inf) where AUC(t-inf) is calculated as last measurable concentration (CLast) divided by ke, where ke is the elimination rate constant determined by linear regression of the last three analytically measured points on the log plasma concentration vs. time curve. The selection criteria of the data points for inclusion in the calculation of ke required that at least three data points representing the terminal phase (after Tmax) were regressed and that R2≧0.850 when rounded.
# CL: Clearance (L/h/kg), calculated as the dose divided by AUC(0-t).
# Vd: Volume of distribution (L/kg), calculated as dose divided by the product of ke and AUC(0-inf).
# Vdss: Steady state volume of distribution (L/kg), calculated as clearance […] mean residence time, where mean residence time is calculated as the area under the first moment curve divided by AUC(0-t).
# t½: Elimination half-life (h), calculated as ln(2)/ke, where ke is the elimination rate constant determined by linear regression. Half-life was defined as not determined if regression criteria (specified in AUC(0-inf) above) were not met.
# Cmax/Dose: Normalized Cmax, calculated as Cmax divided by total dose.
# AUC/Dose: Normalized AUC, calculated as AUC(0-t) divided by total dose.
# ii. Statistical Analysis Mean and standard deviation (SD) were calculated in Watson. Values of BLQ were assigned a value of 0 ng/mL for mean calculations. Concentration values and derived TK parameters were reported to three significant figures.
# [1] = 2 mg/kg, oral 2 mg/kg, Study Day 1, Female
# [2] = 2 mg/kg, oral 2 mg/kg, Study Day 14, Female
# [3] = 5 mg/kg, oral 5 mg/kg, Study Day 1, Female
# [4] = 5 mg/kg, oral 5 mg/kg, Study Day 14, Female
structure (smiles),measurement,setting,value
"CN1CCN(c2ccc(Nc3ncc4cc5n(c4n3)C3(CCCCC3)CNC5=O)nc2)CC1 [Compound 1, 2′-((5-(4-methylpiperazin-1-yl)pyridin-2-yl)amino)-7′,8′-dihydro-6′H-spiro[cyclohexane-1,9′-pyrazino[1′,2′:1,5]pyrrolo[2,3-d]pyrimidin]-6′-one]",concentration at 1 h,"2 mg/kg, Mean Compound 1 Plasma Concentration, oral 2 mg/kg, Day 1, 1 h, Female",91.4 ng/mL
same,concentration at 2 h,"2 mg/kg, Mean Compound 1 Plasma Concentration, oral 2 mg/kg, Day 1, 2 h, Female",196 ng/mL
same,concentration at 4 h,"2 mg/kg, Mean Compound 1 Plasma Concentration, oral 2 mg/kg, Day 1, 4 h, Female",175 ng/mL
same,concentration at 8 h,"2 mg/kg, Mean Compound 1 Plasma Concentration, oral 2 mg/kg, Day 1, 8 h, Female",96.7 ng/mL
same,concentration at 12 h,"2 mg/kg, Mean Compound 1 Plasma Concentration, oral 2 mg/kg, Day 1, 12 h, Female",82.2 ng/mL
same,concentration at 24 h,"2 mg/kg, Mean Compound 1 Plasma Concentration, oral 2 mg/kg, Day 1, 24 h, Female",13 ng/mL
same,concentration at 0.5 h,"2 mg/kg, Mean Compound 1 Plasma Concentration, oral 2 mg/kg, Day 14, 0.5 h, Female",150 ng/mL
same,concentration at 1 h,"2 mg/kg, Mean Compound 1 Plasma Concentration, oral 2 mg/kg, Day 14, 1 h, Female",111 ng/mL
same,concentration at 2 h,"2 mg/kg, Mean Compound 1 Plasma Concentration, oral 2 mg/kg, Day 14, 2 h, Female",212 ng/mL
same,concentration at 8 h,"2 mg/kg, Mean Compound 1 Plasma Concentration, oral 2 mg/kg, Day 14, 8 h, Female",117 ng/mL
same,concentration at 12 h,"2 mg/kg, Mean Compound 1 Plasma Concentration, oral 2 mg/kg, Day 14, 12 h, Female",48.7 ng/mL
same,concentration at 24 h,"2 mg/kg, Mean Compound 1 Plasma Concentration, oral 2 mg/kg, Day 14, 24 h, Female",10.8 ng/mL
same,concentration at […],"2 mg/kg, Mean Compound 1 Plasma Concentration, oral 2 mg/kg, Female",10 ng/mL
same,AUC(0-inf),[1],2160 ng·h/mL
same,AUC(0-t),[1],2060 ng·h/mL
same,Cmax,[1],196 ng/mL
same,Tmax,[1],2 h
same,half-life,[1],5.25 h
same,AUC(0-inf),[2],1850 ng·h/mL
same,AUC(0-t),[2],1770 ng·h/mL
same,Cmax,[2],212 ng/mL
same,Tmax,[2],2 h
same,half-life,[2],4.83 h
same,concentration at 0.5 h,"5 mg/kg, Individual Compound 1 Plasma Concentration, daily oral 5 mg/kg, Day 1, Female, 0.5 h",246 ng/mL
same,concentration at 2 h,"5 mg/kg, Individual Compound 1 Plasma Concentration, daily oral 5 mg/kg, Day 1, Female, 2 h",533 ng/mL
same,concentration at 8 h,"5 mg/kg, Individual Compound 1 Plasma Concentration, daily oral 5 mg/kg, Day 1, Female, 8 h",432 ng/mL
same,concentration at 24 h,"5 mg/kg, Individual Compound 1 Plasma Concentration, daily oral 5 mg/kg, Day 1, Female, 24 h",23.2 ng/mL
same,concentration at 1 h,"5 mg/kg, Individual Compound 1 Plasma Concentration, daily oral 5 mg/kg, Day 14, Female, 1 h",428 ng/mL
same,concentration at 4 h,"5 mg/kg, Individual Compound 1 Plasma Concentration, daily oral 5 mg/kg, Day 14, Female, 4 h",423 ng/mL
same,concentration at 8 h,"5 mg/kg, Individual Compound 1 Plasma Concentration, daily oral 5 mg/kg, Day 14, Female, 8 h",234 ng/mL
same,concentration at 12 h,"5 mg/kg, Individual Compound 1 Plasma Concentration, daily oral 5 mg/kg, Day 14, Female, 12 h",112 ng/mL
same,concentration at 24 h,"5 mg/kg, Individual Compound 1 Plasma Concentration, daily oral 5 mg/kg, Day 14, Female, 24 h",22.2 ng/mL
same,concentration at 0.5 h,"5 mg/kg, Mean Compound 1 Plasma Concentration, oral 5 mg/kg, Day 1, 0.5 h, Female",267 ng/mL
same,concentration at 1 h,"5 mg/kg, Mean Compound 1 Plasma Concentration, oral 5 mg/kg, Day 1, 1 h, Female",406 ng/mL
same,concentration at 2 h,"5 mg/kg, Mean Compound 1 Plasma Concentration, oral 5 mg/kg, Day 1, 2 h, Female",528 ng/mL
same,concentration at 4 h,"5 mg/kg, Mean Compound 1 Plasma Concentration, oral 5 mg/kg, Day 1, 4 h, Female",482 ng/mL
same,concentration at 8 h,"5 mg/kg, Mean Compound 1 Plasma Concentration, oral 5 mg/kg, Day 1, 8 h, Female",360 ng/mL
same,concentration at 12 h,"5 mg/kg, Mean Compound 1 Plasma Concentration, oral 5 mg/kg, Day 1, 12 h, Female",140 ng/mL
same,concentration at 24 h,"5 mg/kg, Mean Compound 1 Plasma Concentration, oral 5 mg/kg, Day 1, 24 h, Female",18.6 ng/mL
same,concentration at 0.5 h,"5 mg/kg, Mean Compound 1 Plasma Concentration, oral 5 mg/kg, Day 14, 0.5 h, Female",382 ng/mL
same,concentration at 1 h,"5 mg/kg, Mean Compound 1 Plasma Concentration, oral 5 mg/kg, Day 14, 1 h, Female",519 ng/mL
same,concentration at 2 h,"5 mg/kg, Mean Compound 1 Plasma Concentration, oral 5 mg/kg, Day 14, 2 h, Female",493 ng/mL
same,concentration at 4 h,"5 mg/kg, Mean Compound 1 Plasma Concentration, oral 5 mg/kg, Day 14, 4 h, Female",439 ng/mL
same,concentration at 8 h,"5 mg/kg, Mean Compound 1 Plasma Concentration, oral 5 mg/kg, Day 14, 8 h, Female",255 ng/mL
same,concentration at 12 h,"5 mg/kg, Mean Compound 1 Plasma Concentration, oral 5 mg/kg, Day 14, 12 h, Female",105 ng/mL
same,concentration at 24 h,"5 mg/kg, Mean Compound 1 Plasma Concentration, oral 5 mg/kg, Day 14, 24 h, Female",19.2 ng/mL
same,concentration at […],"5 mg/kg, Mean Compound 1 Plasma Concentration, oral 5 mg/kg, Female",70.7 ng/mL
same,AUC(0-inf),[3],5440 ng·h/mL
same,AUC(0-t),[3],5340 ng·h/mL
same,Cmax,[3],528 ng/mL
same,Tmax,[3],2 h
same,half-life,[3],3.82 h
same,AUC(0-inf),[4],4740 ng·h/mL
same,AUC(0-t),[4],4620 ng·h/mL
same,Cmax,[4],519 ng/mL

# — patent US20160220569A1, “CDK4/6 Inhibitor Dosage Formulations For The Protection Of Hematopoietic Stem And Progenitor Cells During Chemotherapy” (G1 Therapeutics, Inc., priority 2015, published 2016)
